Entries after “also recorded” stand apart in the source; their conditions may differ. Blank lines part the entries; values can stand above or below the compound they belong to.
What was measured:
human Cav3.2 = target: T1, human Cav3.2 (Homo sapiens, UniProt O95180); assay: Whole-cell patch clamp of T-type Ca2+ currents in Cav3.2-stable transfected HEK 293 cells; assay type: cell-based
T1 construct: host or cells: HEK 293
Method: Certain exemplary embodiments have undergone target identification studies to discover a better officious T-type calcium blocker. The fourteen trifluoromethylated N-benzamide enaminone compounds were synthesized, purified, and structure confirmed using gas chromatography/mass spectroscopy, nuclear magnetic resonance, and elemental analysis. Preliminary in vitro whole cell patch clamp experiments were performed to assess the inhibitory effects of several target analogs on voltage-activated calcium currents in human embryonic kidney (HEK-293) cells. Cav3.2 transfected HEK 293 cells were treated with 50 μM of test compounds and compared to the control group (none pretreated HEK 293 cells).
(§1) ND7/23 cells are derived from the fusion of mouse neuroblastoma and rat dorsal root ganglion cells, which generates a more homogeneous sensory neuron-like cell population. ND7/23 cells were purchased from Sigma-Aldrich (RRID:CVCL_4259). Culture and differentiation of ND7/23 cells was performed as previously described. Briefly, ND7/23 cells were cultured in DMEM/F12 culture media (Millipore, Cat. #DF-041-B), supplemented with 0.5% fetal bovine serum (Invitrogen, Cat. #10437010), db-cAMP (1 mM, Sigma-Aldrich, Cat. #D0627), and nerve growth factor (NGF, 50 ng/mL, Sigma-Aldrich, Ca. #N2513). To remove any proliferating cells, cultures were treated with uridine (20 μM, Sigma-Aldrich, Cat. #U3003) and fluorodeoxyuridine (20 μM, Sigma-Aldrich, Cat. #F0503). Cells were maintained in differentiation media without uridine and fluorodeoxyuridin after induction of differentiation. ND7/23 cells were maintained in differentiation media for ≤6 days. HEK 293 cells that were stabled transfected with the human Cav3.2 and Cav3.3 channel subunits were a gift of Dr. E. Perez-Reyes (University of Virginia). Cav3.2 (or Cav3.3)-stabled transfected HEK 293 cells were culture in DMEM/F12 culture media, supplemented with 5% fetal bovine serum, 50 U/mL penicillin and 50 μg/mL streptomycin. ND7/23 and HEK 293 cells were grown in an incubator at 37° C. in the presence of 5% CO2/95% air humidified atmosphere. Cells passaged less than 20 times were used in this work. Cells were grown in poly-D-lysine-coated glass coverslips for electrophysiological recordings.
Whole cell recordings were performed as previously described. A Nikon Eclipse Ti inverted microscope equipped with Hoffman optics and epifluorescence filters was used to visualize individual cells. Recordings were performed at room temperature (22-24° C.) using glass electrodes made from thin wall borosilicate glass (3-5 MΩ). For electrophysiological recordings of inward Ca^2+ currents, outward K^+ currents were eliminated by equimolar substitution of K^+ with Cs^+ in the pipette solution, whereas inward Na^+ currents were eliminated by the use of TEA ions in the external solution, which are unable to go through voltage-gated Na^+ channels. The pipette solution consisted of (in mM) CsCl (120), MgCl2(2), HEPES (10), EGTA (10), ATP (1), and GTP (0.1), pH 7.4 with CsOH. The composition of the normal external saline used for measurements of Ca^2+ currents was (in mM): tetraethylammonium chloride (TEACl, 145), CaCl2 (10), MgCl2(1), HEPES (10), and glucose (5), pH 7.4 adjusted with CsOH. Ca^2+ currents were generated by applying a 200-500 ms-depolarizing step to various potentials from a holding potential of −100 mV. The external solution used to measure Na^+ currents contained (in mM) NaCl (145), KCl (5.3), CaCl2 (0.5), MgCl2 (5.7), HEPES (13), and glucose (5), pH 7.4 adjusted with KOH. The composition of the CsCl-pipette solution used to record Na^+ currents was the same describe above. Na^+ currents were generated by applying a 20 ms-depolarizing step to various potentials from a holding potential of −100 mV. To assess drug-evoked changes on specific ionic conductances, current amplitudes were expressed as current densities as previously reported. […]

T-type Ca^2+ channels = assay: Whole-cell recording of T-type Ca2+ currents in differentiated ND7/23 cells; assay type: cell-based, mouse neuroblastoma and rat dorsal root ganglion cells; settings: for Effect on T-type Ca2+ current density: vs non-treated cells
Method: as §1
(§2) Whole cell recordings were performed as previously described. A Nikon Eclipse Ti inverted microscope equipped with Hoffman optics and epifluorescence filters was used to visualize individual cells. Recordings were performed at room temperature (22-24° C.) using glass electrodes made from thin wall borosilicate glass (3-5 MΩ). For electrophysiological recordings of inward Ca^2+ currents, outward K^+ currents were eliminated by equimolar substitution of K^+ with Cs^+ in the pipette solution, whereas inward Na^+ currents were eliminated by the use of TEA ions in the external solution, which are unable to go through voltage-gated Na^+ channels. The pipette solution consisted of (in mM) CsCl (120), MgCl2(2), HEPES (10), EGTA (10), ATP (1), and GTP (0.1), pH 7.4 with CsOH. The composition of the normal external saline used for measurements of Ca^2+ currents was (in mM): tetraethylammonium chloride (TEACl, 145), CaCl2 (10), MgCl2(1), HEPES (10), and glucose (5), pH 7.4 adjusted with CsOH. Ca^2+ currents were generated by applying a 200-500 ms-depolarizing step to various potentials from a holding potential of −100 mV. The external solution used to measure Na^+ currents contained (in mM) NaCl (145), KCl (5.3), CaCl2 (0.5), MgCl2 (5.7), HEPES (13), and glucose (5), pH 7.4 adjusted with KOH. The composition of the CsCl-pipette solution used to record Na^+ currents was the same describe above. Na^+ currents were generated by applying a 20 ms-depolarizing step to various potentials from a holding potential of −100 mV. To assess drug-evoked changes on specific ionic conductances, current amplitudes were expressed as current densities as previously reported. To assess current densities, cell size was normalized by dividing current amplitudes by cell capacitance. Cell capacitance was determined by integrating the transient current evoked by a 10-mV voltage step from a holding potential of −60 mV.
(§3) A MULTICLAMP 700A amplifier and PCLAMP software (Axon Instruments) was used to deliver voltage commands and to perform data acquisition and analysis. Pipette offset, whole cell capacitance, and series resistance were compensated automatically with the MultiClamp 700B Commander. Only cells with stable seals and series resistance (≤10 MΩ) were analyzed. Sampling rates were between 5 and 10 kHz. Leak currents were subtracted online using a P/4 protocol. […]

[1] = test system: voltage-activated Na^+ channels; assay: Whole-cell recording of Na+ currents in differentiated ND7/23 cells; assay type: cell-based, mouse neuroblastoma and rat dorsal root ganglion cells; settings: 50 μM
Method: as §1
Whole cell recordings were performed as previously described. A Nikon Eclipse Ti inverted microscope equipped with Hoffman optics and epifluorescence filters was used to visualize individual cells. Recordings were performed at room temperature (22-24° C.) using glass electrodes made from thin wall borosilicate glass (3-5 MΩ). For electrophysiological recordings of inward Ca^2+ currents, outward K^+ currents were eliminated by equimolar substitution of K^+ with Cs^+ in the pipette solution, whereas inward Na^+ currents were eliminated by the use of TEA ions in the external solution, which are unable to go through voltage-gated Na^+ channels. […] To assess drug-evoked changes on specific ionic conductances, current amplitudes were expressed as current densities as previously reported. […] Cell capacitance was determined by integrating the transient current evoked by a 10-mV voltage step from a holding potential of −60 mV.
A MULTICLAMP 700A amplifier and PCLAMP software (Axon Instruments) was used to deliver voltage commands and to perform data acquisition and analysis. […] Only cells with stable seals and series resistance (≤10 MΩ) were analyzed. […]

human Cav3.3 = target: T2, human Cav3.3 (Homo sapiens, UniProt Q9P0X4); assay: Whole-cell patch clamp of T-type Ca2+ currents in Cav3.3-stable transfected HEK 293 cells; assay type: cell-based
T2 construct: host or cells: HEK 293
Method: as §1, §2, §3

[2] = 50 μM, differentiated ND7/23 cells
[3] = increasing concentrations 1-50 μM

T1 sequence (O95180 whole entry): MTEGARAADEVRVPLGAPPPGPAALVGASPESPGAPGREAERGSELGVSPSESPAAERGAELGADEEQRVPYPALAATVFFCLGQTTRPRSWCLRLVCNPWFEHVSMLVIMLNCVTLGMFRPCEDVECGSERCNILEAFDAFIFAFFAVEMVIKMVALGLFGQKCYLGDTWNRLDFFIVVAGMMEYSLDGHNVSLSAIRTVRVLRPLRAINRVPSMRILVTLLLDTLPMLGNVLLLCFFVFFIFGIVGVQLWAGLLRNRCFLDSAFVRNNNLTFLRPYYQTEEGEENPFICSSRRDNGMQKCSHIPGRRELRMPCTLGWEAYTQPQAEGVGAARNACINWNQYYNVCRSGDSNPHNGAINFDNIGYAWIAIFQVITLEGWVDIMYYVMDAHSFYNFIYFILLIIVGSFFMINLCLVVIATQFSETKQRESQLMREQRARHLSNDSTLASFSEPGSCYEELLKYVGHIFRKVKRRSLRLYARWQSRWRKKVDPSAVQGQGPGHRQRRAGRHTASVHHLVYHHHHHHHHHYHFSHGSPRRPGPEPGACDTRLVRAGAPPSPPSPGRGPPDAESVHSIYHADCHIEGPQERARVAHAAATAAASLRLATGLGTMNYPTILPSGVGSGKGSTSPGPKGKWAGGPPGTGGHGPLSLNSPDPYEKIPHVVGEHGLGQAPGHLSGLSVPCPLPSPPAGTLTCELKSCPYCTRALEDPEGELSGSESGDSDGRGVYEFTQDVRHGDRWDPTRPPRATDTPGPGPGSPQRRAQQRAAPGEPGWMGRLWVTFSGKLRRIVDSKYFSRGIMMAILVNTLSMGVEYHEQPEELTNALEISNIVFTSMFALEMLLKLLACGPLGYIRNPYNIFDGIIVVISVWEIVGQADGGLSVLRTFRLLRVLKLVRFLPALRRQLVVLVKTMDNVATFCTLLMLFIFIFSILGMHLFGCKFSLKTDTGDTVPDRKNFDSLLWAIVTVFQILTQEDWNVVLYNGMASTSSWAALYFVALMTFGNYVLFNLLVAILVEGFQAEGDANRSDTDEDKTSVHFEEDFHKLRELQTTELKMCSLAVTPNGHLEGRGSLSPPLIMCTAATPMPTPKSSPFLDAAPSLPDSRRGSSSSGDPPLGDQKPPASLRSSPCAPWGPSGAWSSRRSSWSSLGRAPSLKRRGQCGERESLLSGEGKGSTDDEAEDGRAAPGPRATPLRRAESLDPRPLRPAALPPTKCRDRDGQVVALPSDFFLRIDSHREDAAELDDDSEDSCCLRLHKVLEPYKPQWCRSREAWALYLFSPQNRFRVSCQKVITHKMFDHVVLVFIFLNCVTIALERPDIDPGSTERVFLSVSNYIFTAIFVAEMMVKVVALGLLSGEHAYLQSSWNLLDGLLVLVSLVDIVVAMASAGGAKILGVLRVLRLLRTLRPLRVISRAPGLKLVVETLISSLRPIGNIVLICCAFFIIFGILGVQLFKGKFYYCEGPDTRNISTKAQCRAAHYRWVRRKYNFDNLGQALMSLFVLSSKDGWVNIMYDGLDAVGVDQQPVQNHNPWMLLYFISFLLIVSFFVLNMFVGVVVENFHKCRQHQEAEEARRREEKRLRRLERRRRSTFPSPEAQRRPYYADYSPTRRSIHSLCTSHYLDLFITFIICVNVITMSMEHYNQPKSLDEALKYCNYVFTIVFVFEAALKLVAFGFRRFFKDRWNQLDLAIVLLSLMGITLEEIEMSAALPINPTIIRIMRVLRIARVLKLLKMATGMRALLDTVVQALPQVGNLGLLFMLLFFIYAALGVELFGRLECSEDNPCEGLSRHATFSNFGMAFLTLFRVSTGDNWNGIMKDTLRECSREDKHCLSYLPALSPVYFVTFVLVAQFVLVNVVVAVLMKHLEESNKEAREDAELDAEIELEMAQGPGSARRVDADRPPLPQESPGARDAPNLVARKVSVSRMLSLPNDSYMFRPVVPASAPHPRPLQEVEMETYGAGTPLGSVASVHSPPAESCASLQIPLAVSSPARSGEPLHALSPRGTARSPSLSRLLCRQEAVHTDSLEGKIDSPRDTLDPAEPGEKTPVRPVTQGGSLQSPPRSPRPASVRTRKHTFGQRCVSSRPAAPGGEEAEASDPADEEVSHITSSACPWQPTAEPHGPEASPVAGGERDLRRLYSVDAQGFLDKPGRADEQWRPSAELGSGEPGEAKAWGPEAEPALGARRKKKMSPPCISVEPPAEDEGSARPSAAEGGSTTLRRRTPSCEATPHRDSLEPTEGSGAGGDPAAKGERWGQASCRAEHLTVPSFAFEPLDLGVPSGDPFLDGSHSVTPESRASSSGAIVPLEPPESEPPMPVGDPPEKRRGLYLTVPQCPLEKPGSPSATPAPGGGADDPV
T2 sequence (Q9P0X4 whole entry): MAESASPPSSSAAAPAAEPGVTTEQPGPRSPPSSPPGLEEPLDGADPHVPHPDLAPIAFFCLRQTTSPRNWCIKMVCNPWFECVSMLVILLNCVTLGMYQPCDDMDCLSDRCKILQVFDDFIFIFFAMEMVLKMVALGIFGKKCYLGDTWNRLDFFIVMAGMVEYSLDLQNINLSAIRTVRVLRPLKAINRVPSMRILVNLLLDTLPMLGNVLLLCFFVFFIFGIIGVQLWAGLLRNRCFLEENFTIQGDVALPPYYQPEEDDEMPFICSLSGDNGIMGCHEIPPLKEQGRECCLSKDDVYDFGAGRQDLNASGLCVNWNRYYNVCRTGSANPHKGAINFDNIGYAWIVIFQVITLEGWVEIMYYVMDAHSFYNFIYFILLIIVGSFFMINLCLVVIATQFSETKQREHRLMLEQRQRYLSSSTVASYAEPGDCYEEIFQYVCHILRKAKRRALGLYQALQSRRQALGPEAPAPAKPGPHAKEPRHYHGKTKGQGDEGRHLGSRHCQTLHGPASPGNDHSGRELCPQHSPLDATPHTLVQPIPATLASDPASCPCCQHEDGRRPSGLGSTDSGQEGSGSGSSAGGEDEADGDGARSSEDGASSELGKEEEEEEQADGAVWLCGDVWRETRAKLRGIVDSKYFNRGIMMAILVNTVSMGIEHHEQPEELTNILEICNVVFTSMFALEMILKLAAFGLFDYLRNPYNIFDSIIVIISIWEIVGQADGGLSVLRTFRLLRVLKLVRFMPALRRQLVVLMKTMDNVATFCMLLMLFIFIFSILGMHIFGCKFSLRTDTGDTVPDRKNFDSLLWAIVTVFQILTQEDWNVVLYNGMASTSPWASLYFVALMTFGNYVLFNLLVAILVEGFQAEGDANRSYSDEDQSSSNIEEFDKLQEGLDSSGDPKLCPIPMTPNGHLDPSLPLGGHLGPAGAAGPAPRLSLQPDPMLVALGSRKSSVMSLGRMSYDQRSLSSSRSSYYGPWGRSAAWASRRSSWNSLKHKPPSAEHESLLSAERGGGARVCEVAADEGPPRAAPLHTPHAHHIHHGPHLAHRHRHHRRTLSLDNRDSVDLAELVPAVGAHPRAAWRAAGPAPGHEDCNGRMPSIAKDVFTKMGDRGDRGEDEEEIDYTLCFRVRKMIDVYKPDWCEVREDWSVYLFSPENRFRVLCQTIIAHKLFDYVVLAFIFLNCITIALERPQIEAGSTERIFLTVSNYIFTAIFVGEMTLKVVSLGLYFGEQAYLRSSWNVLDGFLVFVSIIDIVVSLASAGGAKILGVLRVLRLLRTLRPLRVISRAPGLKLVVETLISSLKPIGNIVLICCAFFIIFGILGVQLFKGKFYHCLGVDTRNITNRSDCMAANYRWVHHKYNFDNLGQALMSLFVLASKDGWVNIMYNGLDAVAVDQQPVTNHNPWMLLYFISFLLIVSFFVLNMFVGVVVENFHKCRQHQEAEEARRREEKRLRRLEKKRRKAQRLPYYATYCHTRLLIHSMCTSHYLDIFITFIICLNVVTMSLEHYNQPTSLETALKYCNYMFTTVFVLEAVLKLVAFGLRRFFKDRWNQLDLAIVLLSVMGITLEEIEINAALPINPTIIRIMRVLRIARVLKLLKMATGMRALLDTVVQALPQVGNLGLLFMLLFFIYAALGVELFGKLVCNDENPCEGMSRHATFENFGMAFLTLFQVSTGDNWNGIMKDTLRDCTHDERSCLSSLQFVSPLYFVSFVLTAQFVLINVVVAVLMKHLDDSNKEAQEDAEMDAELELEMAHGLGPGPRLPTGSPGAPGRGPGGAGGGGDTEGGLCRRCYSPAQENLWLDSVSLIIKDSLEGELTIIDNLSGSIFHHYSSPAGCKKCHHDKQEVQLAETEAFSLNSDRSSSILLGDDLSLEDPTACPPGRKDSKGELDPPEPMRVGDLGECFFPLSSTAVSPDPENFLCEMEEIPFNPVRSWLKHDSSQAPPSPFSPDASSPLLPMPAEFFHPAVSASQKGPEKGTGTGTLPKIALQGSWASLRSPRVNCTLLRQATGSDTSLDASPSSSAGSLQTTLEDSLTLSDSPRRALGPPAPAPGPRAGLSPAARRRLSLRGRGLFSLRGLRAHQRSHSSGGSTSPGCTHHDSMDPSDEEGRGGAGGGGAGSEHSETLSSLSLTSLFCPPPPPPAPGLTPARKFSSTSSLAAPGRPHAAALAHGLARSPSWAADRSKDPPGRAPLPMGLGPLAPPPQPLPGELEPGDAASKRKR

SMILES: CC1CC(=O)C=C(NC(=O)c2cccc(OC(F)(F)F)c2)C1 (stereo not shown) [ABA58]
- Effect on whole cell capacitance (human Cav3.2; 50 μM, HEK 293-Cav3.2 cells): no significant changes; also recorded: no effect on cell capacitance

SMILES: CC1CC(=O)C=C(NC(=O)c2ccccc2C(F)(F)F)C1 (stereo not shown) [IAA61, N-(5-methyl-3-oxocyclohex-1-en-1-yl)-2-(trifluoromethyl) benzamide]
- Effect on T-type Ca2+ current density (T-type Ca^2+ channels; [2]): no effect
- Effect on Na+ current density [1]: no noticeable effect

- Effect on inactivation time constant (τ) (human Cav3.3; 10 μM): significant reduction
- Effect on steady-state inactivation (human Cav3.3; 10 μM): no effect
- Effect on voltage-current relationship (human Cav3.3; 10 μM): considerable reduction
- Shift in voltage-dependence of T-type Ca2+ currents (human Cav3.3; 10 μM): no significant shift
- Effect on T-type Ca2+ current density (human Cav3.3; [3]): significant reduction
- V1/2 of steady-state inactivation (Boltzmann fit) (human Cav3.3; treated cells, 10 μM): −58.5±2.1 mV
- IC50 (T-type Ca^2+ channels; differentiated ND7/23 cells, read-out: IC50 on T-type Ca2+ current densities): 10.6 µM
- Effect on inactivation time constant (τ) (human Cav3.2; 10 μM): no effect on the inactivation τ
- Effect on peak current (human Cav3.2; 10 μM): significant reduction
- Shift of the steady-state inactivation curve (human Cav3.2; 10 μM): leftward shift
- Effect on cell capacitance (human Cav3.2; 1-50 μM): no effect on cell capacitance
- Effect on T-type Ca2+ current density (human Cav3.2; [3]): significant reduction
- V1/2 of steady-state inactivation (Boltzmann fit) (human Cav3.2; treated cells, 10 μM): −70.2±1.0 mV
SMILES: CC1CC(=O)C=C(NC(=O)c2cc(C(F)(F)F)cc(C(F)(F)F)c2)C1 (stereo not shown) [IAA65, N-(5-methyl-3-oxocyclohex-1-en-1-yl)-3,5-bis(trifluoromethyl) benzamide]
- Effect on activation time constant (τ) (human Cav3.3; 10 μM): rightward shift; also recorded: significant increase
- Effect on cell capacitance (human Cav3.3; 1-50 μM): no effect on call capacitance; also recorded: no effect on cell capacitance
- Reversal of the effect on T-type Ca2+ current density after drug washout (T-type Ca^2+ channels; 50 μM, 5 min washout): no significant recovery; also recorded: did not reverse the drug effect
- Effect on T-type Ca2+ current density (T-type Ca^2+ channels; [2]): significant reduction
- Effect on activation time constant (τ) (human Cav3.2; 10 μM): no significant changes; also recorded: no effect
- Shift in voltage-dependence of T-type Ca2+ currents (human Cav3.2; 10 μM): without significant changes; also recorded: no significant shift
- Effect on Na+ current density [1]: no noticeable effect; also recorded: no effect on the Na^+ current densities

SMILES: CC1CC(=O)C=C(NC(=O)c2cccc(C(F)(F)F)c2)C1 (stereo not shown) [IAB15, N-(5-methyl-3-oxocyclohex-1-en-1-yl)-3-(trifluoromethyl) benzamide]
- Effect on T-type Ca2+ current density (T-type Ca^2+ channels; [2]): significant reduction
- Effect on Na+ current density [1]: no noticeable effect; also recorded: no effect on the Na^+ current densities

SMILES: CC1CC(=O)C=C(NC(=O)c2ccccc2F)C1 (stereo not shown) [IAB67, 2-fluoro-N-(5-methyl-3-oxocyclohex-1-en-1-yl) benzamide]
- Effect on T-type Ca2+ current density (T-type Ca^2+ channels; [2]): None of the tested compounds has any effect
- Effect on T-type Ca2+ current density (T-type Ca^2+ channels; 50 μM, differentiated ND7/23 cells, listed as IAB65): no effect on Ca^2+ current densities

SMILES: CC(C)C1CC(=O)C=C(NC(=O)c2ccc(C(F)(F)F)cc2)C1 (stereo not shown) [IAC41, N-(5-isopropyl-3-oxocyclohex-1-en-1-yl)-4-(trifluoromethyl) benzamide]
- Effect on T-type Ca2+ current density (T-type Ca^2+ channels; [2]): None of the tested compounds has any effect; also recorded: no effect on Ca^2+ current densities

— patent US20240382438A1, “Calcium Channel Blockers and Methods Thereof” (University of Maryland, Eastern Shore, priority 2023, published 2024)
